Experiments:
PC3 = experiment: CellTiter-Blue cell-based survival/proliferation assay, PC3; settings: Homo sapiens, PC-3; PC3 prostate tumor cell line, 48 h
Procedure: (§1) Cell-Based Proliferation Screening of Compounds
(§2) CellTiter-Blue cell-based survival/proliferation assay (Promega G8080) was performed on tumor cell lines. A total of 1·10^4 cells/well/50 μl were seeded in a 96-wells plate. Treatment was initiated by addition of a 2× drug solution of 1/10 serial dilutions ranging from 0 to 10 μM. Cells were grown for 48 h at 37° C. and then incubated with 10 μl/well of Promega CellTiter-Bleue reagent for 4 h at 37° C. The amount of resorufin dye formed was quantified by its fluorescence emission at 590 nm using a scanning multiwell spectrophotometer (OPTIMA, BMG labtech, France). A blank well without cells was used as a background control for the spectrophotometer.

HCT116 = experiment: CellTiter-Blue cell-based survival/proliferation assay, HCT116; settings: Homo sapiens, HCT-116; HCT116 colorectal tumor cell line, 48 h
Procedure: as §1, §2

PANC1 = experiment: CellTiter-Blue cell-based survival/proliferation assay, PANC1; settings: Homo sapiens, PANC-1; PANC_1 pancreas tumor cell line, 48 h
Procedure: as §1, §2

ACHN = experiment: CellTiter-Blue cell-based survival/proliferation assay, ACHN; settings: Homo sapiens; ACHN kidney tumor cell line, 48 h
Procedure: as §1, §2

HL60 = experiment: CellTiter-Blue cell-based survival/proliferation assay, HL60; settings: Homo sapiens, HL-60, Leukemia cell line HL60, 48 h, read-out: Anti-tumoral activity (measured IC50) HL60
Procedure: as §1, §2

DU145 = experiment: CellTiter-Blue cell-based survival/proliferation assay, DU145; settings: Homo sapiens, DU-145; DU145 prostate tumor cell line, 48 h
Procedure: as §1, §2

A549 = experiment: CellTiter-Blue cell-based survival/proliferation assay, A549; settings: Homo sapiens; A549 lung tumor cell line, 48 h
Procedure: as §1, §2

H1299 = experiment: CellTiter-Blue cell-based survival/proliferation assay, H1299; settings: Homo sapiens, NCI-H1299; H1299 lung tumor cell line, 48 h
Procedure: as §1, §2

OPM2 = experiment: CellTiter-Blue cell-based survival/proliferation assay, OPM2; settings: Homo sapiens, OPM-2, Myeloma cell line OPM2, 48 h, read-out: Anti-tumoral activity (measured IC50) OPM2
Procedure: as §1, §2

PLCPRF5 = experiment: CellTiter-Blue cell-based survival/proliferation assay, PLCPRF5; settings: Homo sapiens, PLC-PRF-5; PLC_PRF5 liver tumor cell line, 48 h
Procedure: as §1, §2

BXPC3 = experiment: CellTiter-Blue cell-based survival/proliferation assay, BXPC3; settings: Homo sapiens, BXPC-3; BXPC3 pancreas tumor cell line, 48 h
Procedure: as §1, §2

CLS354 = experiment: CellTiter-Blue cell-based survival/proliferation assay, CLS354; settings: Homo sapiens, CLS-354; CLS354_4 head & neck tumor cell line, 48 h
Procedure: as §1, §2

MDAMB231 = experiment: CellTiter-Blue cell-based survival/proliferation assay, MDAMB231; settings: Homo sapiens, MDA-MB-231; MDAMB231 breast tumor cell line, 48 h
Procedure: as §1, §2

HEPG2 = experiment: CellTiter-Blue cell-based survival/proliferation assay, HEPG2; settings: Homo sapiens; HEPG2 liver tumor cell line, 48 h
Procedure: as §1, §2

AGS = experiment: CellTiter-Blue cell-based survival/proliferation assay, AGS; settings: Homo sapiens; AGS stomach tumor cell line, 48 h
Procedure: as §1, §2

BT20 = experiment: CellTiter-Blue cell-based survival/proliferation assay, BT20; settings: Homo sapiens, BT-20; BT20 breast tumor cell line, 48 h
Procedure: as §1, §2

A498 = experiment: CellTiter-Blue cell-based survival/proliferation assay, A498; settings: Homo sapiens; A498 kidney tumor cell line, 48 h
Procedure: as §1, §2

DLD1 = experiment: CellTiter-Blue cell-based survival/proliferation assay, DLD1; settings: Homo sapiens, DLD-1; DLD_1 colorectal tumor cell line, 48 h
Procedure: as §1, §2

MESSA = experiment: CellTiter-Blue cell-based survival/proliferation assay, MESSA; settings: Homo sapiens, MES-SA; MESSA ovary tumor cell line, 48 h
Procedure: as §1, §2

HEP2 = experiment: CellTiter-Blue cell-based survival/proliferation assay, HEP2; settings: Homo sapiens, HEp-2; HEP2 head & neck tumor cell line, 48 h
Procedure: as §1, §2

CALU6 = experiment: CellTiter-Blue cell-based survival/proliferation assay, CALU6; settings: Homo sapiens, Calu-6; CALU6 lung tumor cell line, 48 h
Procedure: as §1, §2

TOV112D = experiment: CellTiter-Blue cell-based survival/proliferation assay, TOV112D; settings: Homo sapiens; TOV112D ovary tumor cell line, 48 h
Procedure: as §1, §2

SW579 = experiment: CellTiter-Blue cell-based survival/proliferation assay, SW579; settings: Homo sapiens; SW579 head & neck tumor cell line, 48 h
Procedure: as §1, §2

HGC27 = experiment: CellTiter-Blue cell-based survival/proliferation assay, HGC27; settings: Homo sapiens, HGC-27; HGC27 stomach tumor cell line, 48 h
Procedure: as §1, §2

[1] = tested on: panel of about 34 human tumor cell lines; experiment: Cell-based proliferation screening on panel of tumor cell lines; settings: solid tumor cell line, cell line unknown, 48 h, read-out: IC50, solid tumor cell line of column 6 (last section of Table 3)
Procedure: Compounds of formula (I) were tested against a panel of about 34 human tumor cell lines representing 17 cancer type, namely leukemia (represented by 1 cell line), lymphoma (4 cell lines), myeloma (1 cell line), colorectal (2 cell lines), head and neck (3 cell lines), lung (3 cell lines), melanoma (2 cell lines), pancreas (2 cell lines), prostate (2 cell lines), ovary (2 cell lines) breast (2 cell lines), kidney (2 cell lines), stomach (2 cell lines), liver (2 cell lines), glioblastoma (2 cell lines), osteosarcoma (1 cell line), Ewing Sarcoma (1 cell line).
as §1, §2

Measured: IC50

CCOCc1ccc(C)c(Nc2ncc(-c3ccc(-n4nccc4C)cc3)o2)c1 [Example 041, (5-Ethoxymethyl-2-methyl-phenyl)-{5-[4-(5-methyl-pyrazol-1-yl)-phenyl]-oxazol-2-yl}-amine]
0.1 to 0.5 µM: TOV112D | [1]
0.5 to 1 µM: HL60 | OPM2
> 1 µM: all other assays above

CCOCc1ccc(C)c(Nc2ncc(-c3ccc(-n4nc[nH]c4=O)cc3)o2)c1 [Example 043, 2-{4-[2-(5-Ethoxymethyl-(2-methyl-phenylamino))-oxazol-5-yl]-phenyl}-2,4-dihydro-[1,2,4]triazol-3-one]
0.1 to 0.5 µM: TOV112D | [1]
0.5 to 1 µM: HL60 | OPM2
> 1 µM: all other assays above

CCOCc1ccc(C)c(Nc2ncc(-c3ccc(N4C(=O)NC[C@H]4C)cc3)o2)c1 [Example 051, (R)-1-(4-(2-((5-(ethoxymethyl)-2-methylphenyl)amino)oxazol-5-yl)phenyl)-5-methylimidazolidin-2-one]
0.1 to 0.5 µM: HEP2 | [1]
≤ 0.1 µM: PC3 | HL60 | OPM2 | CLS354 | TOV112D
> 1 µM: all other assays above

CCOCc1ccc(C)c(Nc2ncc(-c3ccc(-n4c(C)n[nH]c4=O)cc3)o2)c1 [Example 052, 4-(4-(2-((5-(ethoxymethyl)-2-methylphenyl)amino)oxazol-5-yl)phenyl)-5-methyl-2,4-dihydro-3H-1,2,4-triazol-3-one]
> 1 µM: all assays above

CCOCc1cc(COCC)cc(Nc2ncc(-c3ccc(N4CCNC4=O)cc3)o2)c1 [Example 053, 1-(4-(2-((3,5-bis(ethoxymethyl)phenyl)amino)oxazol-5-yl)phenyl)imidazolidin-2-one]
≤ 0.1 µM: PC3 | HCT116 | HL60 | OPM2 | CLS354 | MESSA | HEP2 | [1]
0.1 to 0.5 µM: AGS | HGC27
> 1 µM: all other assays above

CCOCc1ccc(C)c(Nc2ncc(-c3ccc(N4CCN(CCOC)C4=O)cc3)o2)c1 [Example 054, 1-(4-(2-((5-(ethoxymethyl)-2-methylphenyl)amino)oxazol-5-yl)phenyl)-3-(2-methoxyethyl)imidazolidin-2-one]
> 1 µM: all assays above

CCOCc1ccc(C)c(Nc2ncc(-c3ccc(N4CCNC4=O)nc3)o2)c1 [Example 055, 1-(5-(2-((5-(ethoxymethyl)-2-methylphenyl)amino)oxazol-5-yl)pyridin-2-yl)imidazolidin-2-one]
0.5 to 1 µM: HGC27
≤ 0.1 µM: PC3 | HCT116 | HL60 | A549 | OPM2 | CLS354 | HEP2 | TOV112D | SW579 | [1]
> 1 µM: all other assays above

CCOCc1cc(Nc2ncc(-c3ccc(N4CCNC4=O)cc3)o2)cc(OCCOC)c1 [Example 056, 1-(4-(2-((3-(ethoxymethyl)-5-(2-methoxyethoxy)phenyl)amino)oxazol-5-yl)phenyl)imidazolidin-2-one]
≤ 0.1 µM: PC3 | HL60 | OPM2 | CLS354 | HEP2 | TOV112D | SW579 | [1]
0.1 to 0.5 µM: ACHN
> 1 µM: all other assays above
